This note sets out measurements from patent publication US20250382273A1 (INSTITUT NATIONAL DE LA SANTE ET DE LA RECHERCHE MEDICALE, priority 2022, published 2025).

Like-named read-outs stand apart in the source and are kept apart here.

Experiment [1] has as its system M. tuberculosis H37Rv_gfp. The format is cell-based, Mycobacterium tuberculosis.
For experiment [2], the system named is M. tuberculosis H37Rv_gfp. The format is cell-based, Mycobacterium tuberculosis. Particulars: in combination with delamanid 4 ng·mL−1, 5 days at 37° C.
Setting [3] is: in combination with pretomanid 20 ng·mL−1, 5 days at 37° C., […], read-out: EC50 H37Rv_gfp.

Take `O=C(Nc1nc2ccc(Oc3cc(C(F)(F)F)ccn3)cc2s1)[C@@H]1C2C=CC(C2)[C@@H]1C(=O)O` (stereo partly drawn) [Example 27, 3-[[6-[[4-(trifluoromethyl)-2-pyridyl]oxy]-1,3-benzothiazol-2-yl]carbamoyl]bicyclo[2.2.1]hept-5-ene-2-carboxylic acid]: the concentration giving a half-maximal response (EC50) – broadly, the concentration needed to bring the measured effect to its halfway point – in experiment [1] (setting [3]) was under 1000 nM; in experiment [1] (in combination with pretomanid, unit inferred, read-out: average EC50 H37Rv_gfp), 110 nM; in experiment [2], 150 nM.
For the molecule `Cc1ccc2nc(N3C(=O)[C@@H]4[C@H](C3=O)[C@@H]3C=C[C@H]4C3)sc2c1` [Example 2, (1R,2S,6R,7S)-4-(6-methyl-1,3-benzothiazol-2-yl)-4-azatricyclo[5.2.1.02,6]dec-8-ene-3,5-dione], the concentration for a half-maximal effect (EC50) was under 1000 nM in experiment [1] (setting [3]) and 420 nM in experiment [2].
Taken in the same sequence, the figures for `Cc1ccc2nc(NC(=O)[C@@H]3C4C=CC(C4)[C@@H]3C(=O)O)sc2c1` (mixture of isomers) [Example 1, 3-[(6-methyl-1,3-benzothiazol-2-yl)carbamoyl]bicyclo[2.2.1]hept-5-ene-2-carboxylic acid] were 1000 to 5000 nM and 310 nM.
Taken in the same sequence, the figures for `O=C(Nc1nc2ccc(Oc3ccccc3)cc2s1)[C@@H]1C2C=CC(C2)[C@@H]1C(=O)O` (stereo partly drawn) [Example 18, [2-hydroxy-1,1-bis(hydroxymethyl)ethyl]ammonium: (1R,2S,3R,4S)-3-[(6-phenoxy-1,3-benzothiazol-2-yl)carbamoyl]bicyclo[2.2.1]hept-5-ene-2-carboxylate] were under 1000 nM and 160 nM.
For the molecule `COc1ccc2nc(NC(=O)[C@@H]3C4C=CC(C4)[C@@H]3C(=O)O)sc2c1` (stereo partly drawn) [Example 6, 3-[(6-methoxy-1,3-benzothiazol-2-yl)carbamoyl]bicyclo[2.2.1]hept-5-ene-2-carboxylic acid], the EC50 in experiment [1] (setting [3]) lay within 1000 to 5000 nM.
As for `N#Cc1ccc2nc(NC(=O)[C@@H]3C4C=CC(C4)[C@@H]3C(=O)O)sc2c1` (stereo partly drawn) [Example 40, 3-[(6-cyano-1,3-benzothiazol-2-yl)carbamoyl]bicyclo[2.2.1]hept-5-ene-2-carboxylic acid], the EC50 in experiment [1] (read-out: EC50 H37Rv_gfp) fell in the range of 1000 to 5000 nM.
On to `O=C(Nc1nc2ccc(Nc3ccnc(F)c3)cc2s1)[C@@H]1C2C=CC(C2)[C@@H]1C(=O)O` (stereo partly drawn) [Example 99, 3-[[6-[(2-fluoro-4-pyridyl)amino]-1,3-benzothiazol-2-yl]carbamoyl]bicyclo[2.2.1]hept-5-ene-2-carboxylic acid], for which the EC50 in experiment [1] (setting [3]) is 5000 to 10000 nM.
`O=C(Nc1nc2ccc(Oc3ncccc3C(F)(F)F)cc2s1)[C@@H]1C2C=CC(C2)[C@@H]1C(=O)O` (stereo partly drawn) [Example 25, 3-[[6-[[3-(trifluoromethyl)-2-pyridyl]oxy]-1,3-benzothiazol-2-yl]carbamoyl]bicyclo[2.2.1]hept-5-ene-2-carboxylic acid]: the EC50 in experiment [1] (setting [3]) lay in the range of 1000 to 5000 nM.
Same read-out and setting: the figure for `O=C(Nc1nc2ccc(C(F)(F)F)cc2s1)[C@@H]1C2C=CC(C2)[C@@H]1C(=O)O` (stereo partly drawn) [Example 43, 3-[[6-(trifluoromethyl)-1,3-benzothiazol-2-yl]carbamoyl]bicyclo[2.2.1]hept-5-ene-2-carboxylic acid] is under 1000 nM; for `O=C(Nc1nc2ccc(Cl)cc2s1)[C@@H]1C2C=CC(C2)[C@@H]1C(=O)O` (stereo partly drawn) [Example 46, 3-[(6-chloro-1,3-benzothiazol-2-yl)carbamoyl]bicyclo[2.2.1]hept-5-ene-2-carboxylic acid] it is 1000 to 5000 nM; for `O=C1[C@@H]2C3C=CC(C3)[C@@H]2C(=O)N1c1nc2ccc(Nc3ccc(F)cn3)cc2s1` [Example 87, 4-[6-[(5-fluoro-2-pyridyl)amino]-1,3-benzothiazol-2-yl]-4-azatricyclo[5.2.1.02,6]dec-8-ene-3,5-dione] it is under 1000 nM.
As for `O=C(Nc1nc2cc3c(cc2s1)OCCO3)[C@@H]1C2C=CC(C2)[C@@H]1C(=O)O` (stereo partly drawn) [Example 10, 3-(6,7-dihydro-[1,4]dioxino[2,3-f][1,3]benzothiazol-2-ylcarbamoyl) bicyclo[2.2.1]hept-5-ene-2-carboxylic acid], the concentration for a half-maximal effect (EC50) in experiment [1] (setting [3]) is 10000 to 20000 nM.
On the same count and under the same terms, the figure for `O=C1[C@@H]2[C@H](C(=O)N1c1nc3ccc(Oc4ccccc4)cc3s1)[C@@H]1C=C[C@H]2C1` [Example 19, (1R,2S,6R,7S)-4-(6-phenoxy-1,3-benzothiazol-2-yl)-4-azatricyclo[5.2.1.02,6]dec-8-ene-3,5-dione] is under 1000 nM.
